Measured values taken from ChEMBL document CHEMBL1143970, “Structure-activity relationships and CoMFA of N-3 substituted phenoxypropyl piperidine benzimidazol-2-one analogues as NOP receptor agonists with analgesic properties” (Bioorg Med Chem, 2008).
In brackets after ≈: the same amount, converted by molar mass.

Experiments:
Rattus norvegicus [1] = experiment: Reversal of mechanically-induced allodynia in Wistar rat at 30 umol/kg, iv after 2 hrs by Brennan test; format: functional
Rattus norvegicus [2] = experiment: Effect on mechanically-induced allodynia in iv dosed Wistar rat after 2 hrs by Brennan test; format: functional
[3] = Solubility of the compound; format: physicochemical

SMILES	Activity (Rattus norvegicus [1]) [%]	ED50 (Rattus norvegicus [2]) [µmol/kg]	solubility [3] [µg/mL]
COc1ccc(C)c(OC(CCN2CCC(n3c(=O)n(Cc4ncn[nH]4)c4ccccc43)CC2)C(C)C)c1 (centres undefined)	100	12.1	
COc1ccc(C)c(OC(CCN2CCC(n3c(=O)n(Cc4c[nH]cn4)c4ccccc43)CC2)C(C)C)c1 (centres undefined)			200 (≈ 386 µM)
COc1ccc(C)c(OC(CCN2CCC(n3c(=O)n(Cc4ncn[nH]4)c4ccccc43)CC2)C(C)C)c1.Cl (single isomer, unassigned; (+))			4
